# According to patent publication US20260258025A1, “INHIBITORS OF TDP-43 AND TAU AGGREGATION” (Aquinnah Pharmaceuticals, inc., priority 2023, published 2026):
# pIC50: −log10 of the molar value.
# Tested on: TDP-43 aggregation
# Assay: TDP-43 aggregation assay in SY5Y TDP-43WT cells (high content imaging)
# Assay type: cell-based
# Conditions: Homo sapiens, tetracycline induction 24 hrs, 1 hour compound pre-treatment, sodium arsenite 23 hrs, 8-point dose curve, percentage of cells with TDP-43 aggregates, read-out: IC50, Inhibition of TDP-43 Aggregation
# Outline: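 Tetracycline-inducible eGFP-tagged wild-type human TDP-43 in SH-SY5Y cells, induced 24 h ([…]), compound pre-treated 1 h, then sodium arsenite […] for 23 h. Fixed cells imaged; percentage of DAPI-counted cells with aggregates gives IC50 from 8-point curves.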
row,pIC50,SMILES
1,> 6.30,"COCCN1CCC(c2ccc(-c3cc(Cl)c(C(=O)N4CC[C@H](N)C4)s3)cc2Cl)CC1 [Compound 253, (S)-(3-aminopyrrolidin-1-yl)(3-chloro-5-(3-chloro-4-(1-(2-methoxyethyl)piperidin-4-yl)phenyl)thiophen-2-yl)methanone]"

# Tested on: tau stress granules
# Assay: SY5Y-tT1 tau arsenite assay (tau stress granules per cell)
# Assay type: cell-based
# Conditions: SY5Y-tT1 cells, 2 hours compound, 90 minutes arsenite, 50% reduction of granules per cell, read-out: IC50, Inhibitor Activity of Tau Stress Granules
# Method: Example 91: In Vitro Efficacy Assay of Exemplary Compounds—SY5Y-tT1 Tau Arsenite/Thapsigargin Assay
# • Before harvesting cells—checked to see if cells are ~80% confluency in their flask • 1. Aspirated growth media from flask. • 2. Added 4 mL of (0.25%) trypsin-EDTA (REF: 25200-056) • 3. Placed in 37° C. incubator for 5 minutes. • 4. Removed from incubator and added 11 mL growth media, washing any remaining cells adhered to the bottom of the flask. • 5. Transferred cell containing media to a 50 mL conical tube and spun for 5 minutes at 800 rpm. • 6. Aspirated supernatant and added 5 mL of growth media to cell pellet, triturating to make a homogenous cell solution. • 7. After counting cells, followed one of these plating paradigms: • (A) If treating with arsenite, plated cells at […] with tetracycline solution (5 mg/mL) added to cell solution at 1:5000 • (B) If treating with thapsigargin, plated cells at 4,000 cells/well with tetracycline solution (5 mg/mL) added to cell solution at 1:5000 • 8. Incubated at 37° C. for 48 hours.
# • Solubilized all compounds to 10 mM prior to making dilution plates • 1. To a 96-well U-bottom plate (Falcon Non-Tissue Culture Treated Plates REF: 351177) added 120 μL growth media to all 96 wells, with an additional 58.2 μL to row A. • 2. Added 1.8 μL of 10 mM compound stock to wells A1-11, adding 1.8 μL of 10 mM PERKi stock (Selleck Chemistry GSK2606414 Cat No. S7307) as the control. • 3. Serially diluted 60 μL from row A down through each row, finishing with 180 μL total volume in row H. • 4. Transferred 12.5 μL of each dilution plate well to the correlating wells in cell plate, being careful not to touch cells adhered to bottom of the plate. • 5. Incubated for 2 hours.
# • 1. Added 720 μL of 0.05 M sodium arsenite solution (CAS #: 7784-46-5) to 10 mL of growth media for a final concentration of […] arsenite solution, mix well. • 2. Added 12.5 μL of arsenite solution to all wells of compounds treated plate intended for arsenite treatment. • 3. Incubated at 37° C. for 90 minutes.
# • Before beginning this part of the protocol: • Made 1×PBS by diluting 10× stock (10×, Phosphate buffered saline, Fisher #BP399— • 4) in sterile deionized water. • Diluted paraformaldehyde (16% Paraformaldehyde solution, Electron Microscopy Sciences #15710-S) to 4% in 1×PBS. • Diluted Hoechst stain (Life Technologies #H3570) 1:10,000 in 1×PBS (1 μL Hoechst per 10 mL 1×PBS). • Both solutions were protected from light. • 1) After compound treatment, aspirated media from cell plates and gently added in 50 μL of 4% paraformaldehyde for 10 min protected from light at room temperature. • 2) Aspirated paraformaldehyde solution and gently added 50 μL of 1:10,000 Hoechst solution to each well and incubated for 10 min protected from light at room temperature. • 3) Aspirated Hoechst solution and gently added 100 μL 1×PBS. Cover the plate with aluminum film (VWR #60941-126). • 4) Stored at 4° C. or used immediately for imaging on ThermoFisher CX7 imager.
# Exemplary compounds of the disclosed herein were evaluated for efficacy for inhibitor activity of tau stress granules in the arsenite assay and quantified as drug concentration providing a 50% reduction (IC50) of granules per cell is shown in Table 4.
# In Table 4 below, A indicates an IC50 (μM)<0.5 μM, B indicates an IC50 (μM) 0.5 μM to <1 μM, C indicates an IC50 (μM) 1 μM to <2 μM, and D indicates an IC50 (μM) 2 μM to <6 μM.
row,pIC50,SMILES
1,5.22 to 5.70,"Cc1cc(-c2ccc(C3CCN(C)CC3)c(Cl)c2)sc1C(=O)N1CC[C@H](N)C1 [Compound 135, (S)-(3-aminopyrrolidin-1-yl)(5-(3-chloro-4-(1-methylpiperidin-4-yl)phenyl)-3-methylthiophen-2-yl)methanone]"
2,> 6.30,"Cc1cc(-c2cc(C)c(C(=O)N3CC[C@H](N)C3)s2)ccc1C1CCNCC1 [Compound 149, (S)-(3-aminopyrrolidin-1-yl)(3-methyl-5-(3-methyl-4-(piperidin-4-yl)phenyl)thiophen-2-yl)methanone]"
3,5.70 to 6.00,"Cc1cc(-c2ccc(C3CCN(C)CC3)cc2Cl)sc1C(=O)N1CC[C@H](N)C1 [Compound 120, (S)-(3-aminopyrrolidin-1-yl)(5-(2-chloro-4-(1-methylpiperidin-4-yl)phenyl)-3-methylthiophen-2-yl)methanone]"
4,> 6.30,"Cc1cc(-c2ccc(C3CCN(CC4CCOCC4)CC3)cc2)sc1C(=O)N1CC[C@H](N)C1 [Compound 147, (S)-(3-aminopyrrolidin-1-yl)(3-methyl-5-(4-(1-((tetrahydro-2H-pyran-4-yl)methyl)piperidin-4-yl)phenyl)thiophen-2-yl)methanone]"
5,5.22 to 5.70,"Cc1cc(-c2ccc(C3CCN(C)CC3)c(OC(F)(F)F)c2)sc1C(=O)N1CC[C@H](N)C1 [Compound 112, (S)-(3-aminopyrrolidin-1-yl)(3-methyl-5-(4-(1-methylpiperidin-4-yl)-3-(trifluoromethoxy)phenyl)thiophen-2-yl)methanone]"
6,5.22 to 5.70,"Cc1cc(-c2ccc(C3CCNCC3)cc2F)sc1C(=O)N1CC[C@H](N)C1 [Compound 129, (S)-(3-aminopyrrolidin-1-yl)(5-(2-fluoro-4-(piperidin-4-yl)phenyl)-3-methylthiophen-2-yl)methanone]"
7,6.00 to 6.30,"Cc1cc(-c2ccc3c(c2)CCOC3)sc1C(=O)N1CC[C@H](N)C1 [Compound 165, (S)-(3-aminopyrrolidin-1-yl)(5-(isochroman-6-yl)-3-methylthiophen-2-yl)methanone]"
8,5.70 to 6.00,"Cc1cc(-c2ccc(C3CCN(C4CCSCC4)CC3)cc2)sc1C(=O)N1CC[C@H](N)C1 [Compound 167, (S)-(3-aminopyrrolidin-1-yl)(3-methyl-5-(4-(1-(tetrahydro-2H-thiopyran-4-yl)piperidin-4-yl)phenyl)thiophen-2-yl)methanone]"
9,5.22 to 5.70,"COc1cc(-c2cc(C)c(C(=O)N3CC[C@H](N)C3)s2)ccc1C1CCN(C)CC1 [Compound 111, (S)-(3-aminopyrrolidin-1-yl)(5-(3-methoxy-4-(1-methylpiperidin-4-yl)phenyl)-3-methylthiophen-2-yl)methanone]"
10,6.00 to 6.30,"Cc1cc(-c2ccc(N3CCN(C(C)C)CC3)cc2)sc1C(=O)N1CC[C@H](N)C1 [Compound 159, (S)-(3-aminopyrrolidin-1-yl)(5-(4-(4-isopropylpiperazin-1-yl)phenyl)-3-methylthiophen-2-yl)methanone]"
11,5.70 to 6.00,"CCCc1cc(-c2ccc(C3CCN(C(C)C)CC3)cc2)sc1C(=O)N1CC[C@H](N)C1 [Compound 110, (S)-(3-aminopyrrolidin-1-yl)(5-(4-(1-isopropylpiperidin-4-yl)phenyl)-3-propylthiophen-2-yl)methanone]"
12,6.00 to 6.30,"Cc1cc(-c2ccc(C3CCN(C)CC3)nc2)sc1C(=O)N1CC[C@H](N)C1 [Compound 108, (S)-(3-aminopyrrolidin-1-yl)(3-methyl-5-(6-(1-methylpiperidin-4-yl)pyridin-3-yl)thiophen-2-yl)methanone]"
13,5.70 to 6.00,"Cc1cc(-c2ccc(C3CCN(C)CC3)cn2)sc1C(=O)N1CC[C@H](N)C1 [Compound 104, (S)-(3-aminopyrrolidin-1-yl)(3-methyl-5-(5-(1-methylpiperidin-4-yl)pyridin-2-yl)thiophen-2-yl)methanone]"
14,5.22 to 5.70,"Cc1cc(-c2cc(C)c(C(=O)N3CC[C@H](N)C3)s2)ccc1C1CCN(C)CC1 [Compound 144, (S)-(3-aminopyrrolidin-1-yl)(3-methyl-5-(3-methyl-4-(1-methylpiperidin-4-yl)phenyl)thiophen-2-yl)methanone]"
15,5.70 to 6.00,"C=Cc1cc(-c2ccc(C3CCN(C(C)C)CC3)cc2)sc1C(=O)N1CC[C@H](N)C1 [Compound 117, (S)-(3-aminopyrrolidin-1-yl)(5-(4-(1-isopropylpiperidin-4-yl)phenyl)-3-vinylthiophen-2-yl)methanone]"
16,> 6.30,"Cc1cc(-c2ccc(C3(N(C)C)CCOCC3)cc2)sc1C(=O)N1CC[C@H](N)C1 [Compound 166, (S)-(3-aminopyrrolidin-1-yl)(5-(4-(4-(dimethylamino)tetrahydro-2H-pyran-4-yl)phenyl)-3-methylthiophen-2-yl)methanone]"
17,5.70 to 6.00,"Cc1cc(-c2ccc(N3CCN(C4CCC4)CC3)cc2)sc1C(=O)N1CC[C@H](N)C1 [Compound 158, (S)-(3-aminopyrrolidin-1-yl)(5-(4-(4-cyclobutylpiperazin-1-yl)phenyl)-3-methylthiophen-2-yl)methanone]"
18,5.22 to 5.70,"Cc1cc(-c2ccc(N3CCN(C4CCOCC4)CC3)cc2)sc1C(=O)N1CC[C@H](N)C1 [Compound 151, (S)-(3-aminopyrrolidin-1-yl)(3-methyl-5-(4-(4-(tetrahydro-2H-pyran-4-yl)piperazin-1-yl)phenyl)thiophen-2-yl)methanone]"
19,5.70 to 6.00,"Cc1cc(-c2ccc(N3CCN(C4CCCC4)CC3)cc2)sc1C(=O)N1CC[C@H](N)C1 [Compound 153, (S)-(3-aminopyrrolidin-1-yl)(5-(4-(4-cyclopentylpiperazin-1-yl)phenyl)-3-methylthiophen-2-yl)methanone]"
20,5.70 to 6.00,"Cc1cc(-c2ccc(N3CCNCC3)cc2)sc1C(=O)N1CC[C@H](N)C1 [Compound 162, (S)-(3-aminopyrrolidin-1-yl)(3-methyl-5-(4-(piperazin-1-yl)phenyl)thiophen-2-yl)methanone]"
21,5.70 to 6.00,"Cc1cc(-c2ccc(C3CCN(C)CC3)cc2F)sc1C(=O)N1CC[C@H](N)C1 [Compound 128, (S)-(3-aminopyrrolidin-1-yl)(5-(2-fluoro-4-(1-methylpiperidin-4-yl)phenyl)-3-methylthiophen-2-yl)methanone]"
22,6.00 to 6.30,"Cc1cc(-c2ccc(C3CCN(CC4CCCCO4)CC3)cc2)sc1C(=O)N1CC[C@H](N)C1 (stereo partly drawn) [Compound 119, ((S)-3-aminopyrrolidin-1-yl)(3-methyl-5-(4-(1-((tetrahydro-2H-pyran-2-yl)methyl)piperidin-4-yl)phenyl)thiophen-2-yl)methanone]"
23,> 6.30,"Cc1cc(-c2cnc(C3CCN(C)CC3)nc2)sc1C(=O)N1CC[C@H](N)C1 [Compound 124, (S)-(3-aminopyrrolidin-1-yl)(3-methyl-5-(2-(1-methylpiperidin-4-yl)pyrimidin-5-yl)thiophen-2-yl)methanone]"
24,> 6.30,"Cc1cc(-c2ccc(C3CCN(C4COC4)CC3)cc2)sc1C(=O)N1CC[C@H](N)C1 [Compound 164, (S)-(3-aminopyrrolidin-1-yl)(3-methyl-5-(4-(1-(oxetan-3-yl)piperidin-4-yl)phenyl)thiophen-2-yl)methanone]"
